pIC50: −log10 of the molar value. Structures can show the parent of a compound that is named as a salt.
Columns and labels:
[1] = test system: angiogenesis of the chronic granulomatous air pouch in mice; assay: angiogenesis of the chronic granulomatous air pouch in mice; assay type: in vivo, mouse; settings: orally
Procedure: 3 ml of air was injected into the dorsal subcutaneous tissue. 24 hr later, 0.5 ml of 0.1% croton oil in Freund's complete adjuvant was injected into the air pouch. Meanwhile the compound or solvent was orally administrated everyday. At sixth day the mice were anaesthetized and kept at 40° C. for 10 min. 1 ml of 1% carmine red containing 5% gelatin was injected into the tail vein. The animal was kept at 0-4° C. for 2-3 hr. The air-pouch tissue was detached, dried in oven at 56° C. for 48 hr, weighed and cut to small pieces. 2 ml of digesting fluid was added into the tissue. The carmine red was solved by NaOH (5 mol·L^−1). The supernatant was isolated and filtered. The absorbance was measured at 540 nm. The content of carmine red was calculated according to the correct curve.

[2] = test system: macrophages from mouse peritoneal cavity; assay: chemotaxis of macrophages from mouse peritoneal cavity induced by PAF; assay type: cell-based; settings: Macrophage, 2 hr, read-out: IC50, inhibition of chemotaxis
Procedure: 4% of sodium mercaptoethanol was injected into C57BL/6 mouse peritoneal cavity to induce macrophages. The cells in peritoneal cavity were collected after injection for 3-4 days. 27 μl of irritant was added into the well at low part of the chemotaxis plate. The filter membrane was covered on the wells and the top part of the plate was assembled on the filter. 55 μl of cells suspension with various concentrations of the compounds or solvent was added into the well at top part of the plate. The plate was placed into incubater with 5% CO2 at 37° C. for 2 hr. The filter was taken out, stained by hematoxylin and dehydrated. The cells migrated into the other side of the filter was counted by microscope.

[3] = test system: rat arthritis induced by type II collagen; assay: rat arthritis induced by type II collagen; assay type: in vivo; settings: 100 mg · kg^−1 × 13 d, orally, Wistar rat
Procedure: (§1) 0.1 ml of type II H collagen (2 mg·ml^−1) was intracutaneously injected into the hind foot of Wistar rat (male, 100±10 g) (d0). Seven days later 0.1 ml of type II collagen was intracutaneously injected into the root of tail. At 19th day (d19) the animals inflamed were selected to supply the experiment and randomly divided into two groups. […] The perimeter of the ankle joint of two hind feet, weight of body was measured and the systemic inflammation (including the toes of front and hind feet, ears and tails) was judged by scoring every 3 days. At 41th day 40 μl of 0.2% type II collagen was intracutaneously injected into the right ear. Twenty-four hr later the edema level was evaluated by weighing the ponderance of ear piece (diameter: 8 mm). At 42th day the blood was collected by decapitating. The serum was separated by centrifugating. The contents of antibody for anti-type II collagen, cytokine TNF-α, IL-1β in serum were determined by ELISA kit.

[4] = test system: mouse paw swelling induced by carrageenan; assay: mouse paw swelling induced by carrageenan; assay type: in vivo; settings: orally, 50 mg·kg^−1, Kunming mice
Procedure: Kunming mice (male, 18-22 g) were randomly divided into two groups (treatment and control) with 10 animals for each group. The animals were orally administrated with compounds or solvent, respectively. 1 hr later, 50 μl of 1% carrageenan was intracutaneously injected into the sole of right posterior foot. After 4 hr the animals were sacrificed by displacing cervical vertebra. The two paws were cut off at ankle joint and weighed. The swelling was evaluated by the difference of the weights of two paws.

IL-1β in serum = IL-1β in serum of rat with arthritis induced by type II collagen (ELISA); assay type: in vivo; settings: Dose 100 mg · kg^−1 × 13 d, orally
Procedure: as §1, with “At 19th day (d19) the animals inflamed were selected to supply the experiment and randomly divided into two groups.” left out

[5] = test system: production of TNF-α by macrophages from mouse peritoneal cavity; assay: production of TNF-α by macrophages from mouse peritoneal cavity (LPS, L929 bioassay); assay type: cell-based; settings: Macrophage, LPS 10 μg·ml^−1, 24 hr, read-out: IC50, inhibition of the production of TNF-α
Procedure: The macrophages from mouse peritoneal cavity were prepared as described before. 500 μl of cells were inoculated in 48-well plate which was incubated with 5% CO2 at 37° C. for 2.5 hr. The compounds and LPS (final concentration: 10 μg·ml^−1) were added into each well of the plate. After incubating for 24 hr the supernatant was collected. The content of TNF-α was determined by following method. 100 μl of L929 cells (2×10^5cells·ml^−1) with 100 μl of RPMI-1640 or supernatant collected above were inoculated into 96-well plate which incubated under 5% CO2 at 37° C. for 20 hr. The supernatant was discarded. 200 μl of 0.5% crystal violet was added into each well. 10 min later crystal violet outside of the cells was rinsed using normal saline. The cells were dried under room temperature. 100 μl of 10% SDS was added into each well. After the cells were lysed completely the optical density was measured at 570 nm. The well of 1640 media was as the control, The content of TNF-a was evaluated by the percentage of L929 cells survival.

[6] = test system: production of NO in macrophages from mouse peritoneal cavity; assay: production of NO in macrophages from mouse peritoneal cavity (LPS and PAF); assay type: cell-based; settings: Macrophage, costimulated by LPS (1×10^−9 mol·L^−1) and PAF (1×10^−6 mol·L^−1), 24 hr, read-out: IC50, inhibition of the production of NO
Procedure: 4% of sodium mercaptoethanol was injected into C57BL/6 mouse peritoneal cavity to induce macrophages. The cells in peritoneal cavity were collected after injection for 3-4 days. 500 μl of cells were inoculated in the well of 24 wells plate which was placed in the CO2 incubator at 37° C. for 2.5 hr to make the cells adherent. The cells were rinsed by 1640 culture media. 495 μl of 1640 media containing irritant and 5 μl the compound or solvent were added into each well. The plate was incubated for 24 hr. The supernatant was taken out and mixed with the same volume of Griess agent. The reaction fluid was kept at room temperature for 10 min and the optical density was measured at 550 nm. The numbers read was transferred into the content of NO.

- pIC50 [2]: 9.32
- pIC50 [5]: 7.47
- pIC50 [6]: 6.65
Compound: CCOC(=O)C1CCN(CCC(=O)/C=C/c2ccc(Cl)cc2)CC1 [Compound 3, 5-[(4-Ethoxycarbonyl)piperidyl]-1-(4-chlorophenyl)-1-penten-3-one hydrochloride]
- Inhibition (%) of angiogenesis (content of carmine red) ([1]; Dose 12.5 mg · kg^−1 × 5 d): 17.8%
- Inhibition (%) of angiogenesis (content of carmine red) ([1]; Dose 25 mg · kg^−1 × 5 d): 20.6%
- Inhibition (%) of angiogenesis (content of carmine red) ([1]; Dose 50 mg · kg^−1 × 5 d): 28.4%
- Inhibition (%) Score for systemic inflammation [3]: 52.6%
- Inhibition (%) Swelling of left ankle joint [3]: 67.5%
- Inhibition (%) Swelling of right ankle joint [3]: 68.8%
- Inhibition (%) of mouse paw swelling [4]: 32.52%
- Inhibition (%) of production of IL-1β in serum (IL-1β in serum): 45.7%

— patent US8524744B2, “Arylamine ketones, their preparation methods, the pharmaceutical composition containing them and their use” (Institute of Mataria Medica, Chinese Academy of Medical …, priority 2004, dated 2013)
